Test results reported in ChEMBL document CHEMBL1201862, “PubChem BioAssay data set” (2004).
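Five compound concentrations were applied to cells in 96-well plates for 48 hours; endpoints were derived by simple linear interpolation of the resulting dose-response curve. GI50 is the concentration that inhibits growth by half.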 Calls of active or inactive are those of the source. Rule as the data show it: active = GI50 up to about 1.1 µM and inactive = higher.

Experiments:
Assay in all cases: NCI anticancer screen, dose series, 48 h
[1] = test system: KM12
[2] = test system: Malme-3M
[3] = test system: CAKI-1
[4] = test system: CCRF-CEM
[5] = test system: HOP-92
[6] = test system: NCI/ADR-RES
[7] = test system: OVCAR-8
[8] = test system: OVCAR-4
[9] = test system: SNB-75
[10] = test system: MOLT-4
[11] = test system: SK-OV-3
[12] = test system: NCI-H226
[13] = test system: IGROV-1
[14] = test system: OVCAR-5
[15] = test system: RPMI-8226
[16] = test system: COLO 205
[17] = test system: SW-620
[18] = test system: PC-3
[19] = test system: U-251
[20] = test system: T47D

SMILES | GI50 [1] | GI50 [2] | GI50 [3] | GI50 [4] | GI50 [5] | GI50 [6] | GI50 [7] | GI50 [8] | GI50 [9] | GI50 [10] | GI50 [11] | GI50 [12] | GI50 [13] | GI50 [14] | GI50 [15] | GI50 [16] | GI50 [17] | GI50 [18] | GI50 [19] | GI50 [20]
O=[N+]([O-])c1cc(Cl)ccc1S(=O)(=O)c1cc(Cl)cc2c1NCCC2 | 52.7 µM (inactive) | > 100 µM (inactive) | 66.7 µM (inactive) | 26.4 µM (inactive) | 54.6 µM (inactive) | 71.4 µM (inactive) | 56.6 µM (inactive) | > 100 µM (inactive) | 18.4 µM (inactive) | 27.6 µM (inactive) | > 100 µM (inactive) | 39.3 µM (inactive) | 29.1 µM (inactive) | > 100 µM (inactive) | > 100 µM (inactive) | 99.8 µM (inactive) | > 100 µM (inactive) | 69.8 µM (inactive) | – | –
O=c1[nH]/c(=C/c2ccc(OCc3ccccc3)cn2)c(=O)[nH]/c1=C/c1ccc(Cl)cc1 | 0.895 µM (active) | 0.624 µM (active) | 0.45 µM (active) | 3.72 µM (inactive) | 13.9 µM (inactive) | 5.37 µM (inactive) | > 100 µM (inactive) | 2.42 µM (inactive) | 1.86 µM (inactive) | 1.52 µM (inactive) | 4.47 µM (inactive) | 35.1 µM (inactive) | – | > 100 µM (inactive) | 3.81 µM (inactive) | 11.9 µM (inactive) | 1.55 µM (inactive) | – | 4.35 µM (inactive) | > 100 µM (inactive)
Cn1c(=O)n2n(c1=O)C(S(=O)(=O)c1ccccc1)C2 (centres undefined) | > 100 µM (inactive) | > 100 µM (inactive) | > 100 µM (inactive) | > 100 µM (inactive) | > 100 µM (inactive) | > 100 µM (inactive) | > 100 µM (inactive) | > 100 µM (inactive) | > 100 µM (inactive) | > 100 µM (inactive) | > 100 µM (inactive) | – | > 100 µM (inactive) | > 100 µM (inactive) | > 100 µM (inactive) | > 100 µM (inactive) | > 100 µM (inactive) | > 100 µM (inactive) | > 100 µM (inactive) | –
CC(C)(C)N1C(=O)[N-]/[N+](=C(/C(c2ccccc2)=[N+]2/[N-]C(=O)N(C(C)(C)C)C2=O)c2ccccc2)C1=O | > 100 µM (inactive) | – | > 100 µM (inactive) | > 100 µM (inactive) | > 100 µM (inactive) | – | – | > 100 µM (inactive) | > 100 µM (inactive) | > 100 µM (inactive) | > 100 µM (inactive) | – | – | > 100 µM (inactive) | > 100 µM (inactive) | > 100 µM (inactive) | > 100 µM (inactive) | > 100 µM (inactive) | > 100 µM (inactive) | > 100 µM (inactive)
CC(=O)OC[C@@H](COC(=O)/C=C/c1ccc(O)cc1)OC1OC(CO)C(O)C(O)C1O (some centres undefined) | > 100 µM (inactive) | > 100 µM (inactive) | > 100 µM (inactive) | > 100 µM (inactive) | > 100 µM (inactive) | – | > 100 µM (inactive) | > 100 µM (inactive) | > 100 µM (inactive) | > 100 µM (inactive) | > 100 µM (inactive) | > 100 µM (inactive) | > 100 µM (inactive) | > 100 µM (inactive) | > 100 µM (inactive) | > 100 µM (inactive) | > 100 µM (inactive) | – | > 100 µM (inactive) | –
Cc1cc(C)c2c(c1C)CN1CN2Cc2c(C)c(C)cc(C)c21 | > 100 µM (inactive) | > 100 µM (inactive) | > 100 µM (inactive) | > 100 µM (inactive) | 67.1 µM (inactive) | – | > 100 µM (inactive) | 7.98 µM (inactive) | 21 µM (inactive) | > 100 µM (inactive) | > 100 µM (inactive) | > 100 µM (inactive) | > 100 µM (inactive) | > 100 µM (inactive) | > 100 µM (inactive) | 45.6 µM (inactive) | > 100 µM (inactive) | – | 5.18 µM (inactive) | –
CCN1CCN=C2c3cc(OC)ccc3Nc3c([N+](=O)[O-])ccc1c32 | 0.713 µM (active) | 0.841 µM (active) | 0.485 µM (active) | 0.571 µM (active) | 0.622 µM (active) | – | 0.621 µM (active) | 1.29 µM (inactive) | 1.68 µM (inactive) | 0.279 µM (active) | 2.43 µM (inactive) | – | 1.67 µM (inactive) | – | 0.552 µM (active) | 0.668 µM (active) | 0.472 µM (active) | 1 µM (active) | – | 3.32 µM (inactive)
CC1(C)OC(C[C@]2(C#N)C[C@H](CCl)OC(C)(C)O2)C[C@@H](C[C@]2(C#N)C[C@H](CCl)OC(C)(C)O2)O1 (some centres undefined) | > 100 µM (inactive) | > 100 µM (inactive) | > 100 µM (inactive) | > 100 µM (inactive) | > 100 µM (inactive) | – | > 100 µM (inactive) | > 100 µM (inactive) | > 100 µM (inactive) | 38.8 µM (inactive) | > 100 µM (inactive) | > 100 µM (inactive) | > 100 µM (inactive) | > 100 µM (inactive) | > 100 µM (inactive) | > 100 µM (inactive) | > 100 µM (inactive) | – | > 100 µM (inactive) | –
O=C(O)C12C3C4C1C1C2C3C41I (centres undefined) | > 100 µM (inactive) | > 100 µM (inactive) | > 100 µM (inactive) | > 100 µM (inactive) | > 100 µM (inactive) | – | > 100 µM (inactive) | > 100 µM (inactive) | 70.6 µM (inactive) | > 100 µM (inactive) | > 100 µM (inactive) | > 100 µM (inactive) | > 100 µM (inactive) | > 100 µM (inactive) | > 100 µM (inactive) | > 100 µM (inactive) | > 100 µM (inactive) | – | > 100 µM (inactive) | –
COC(=O)CC[C@@H](NC(=O)C(C)NC(=O)COC1C(O)C(COC(=O)CCCCCCCCCCNC(=O)c2ccc([N+](=O)[O-])c3[nH]c4cc(Br)ccc4c(=O)c23)OC(OCc2ccccc2)C1NC(C)=O)C(N)=O (some centres undefined) | > 100 µM (inactive) | > 100 µM (inactive) | > 100 µM (inactive) | > 100 µM (inactive) | 37.1 µM (inactive) | – | > 100 µM (inactive) | > 100 µM (inactive) | > 100 µM (inactive) | 70.3 µM (inactive) | > 100 µM (inactive) | 25.1 µM (inactive) | 19.5 µM (inactive) | 37.3 µM (inactive) | 39.7 µM (inactive) | 96.6 µM (inactive) | > 100 µM (inactive) | – | > 100 µM (inactive) | –
O=S(=O)(N/N=C\c1c2ccccc2[n+]([O-])c2ccccc12)c1ccc(Cl)cc1 | > 100 µM (inactive) | 53.1 µM (inactive) | > 100 µM (inactive) | > 100 µM (inactive) | > 100 µM (inactive) | – | > 100 µM (inactive) | 33.3 µM (inactive) | 26.1 µM (inactive) | 58.6 µM (inactive) | > 100 µM (inactive) | 30.3 µM (inactive) | > 100 µM (inactive) | > 100 µM (inactive) | > 100 µM (inactive) | > 100 µM (inactive) | > 100 µM (inactive) | – | 94.4 µM (inactive) | –
c1ccc([S+](c2ccccc2)c2ccc(Sc3ccc([S+](c4ccccc4)c4ccccc4)cc3)cc2)cc1 | 21.3 µM (inactive) | 32.6 µM (inactive) | 75.5 µM (inactive) | 19.4 µM (inactive) | 27.6 µM (inactive) | – | 20.3 µM (inactive) | 20.6 µM (inactive) | 19.2 µM (inactive) | 9.73 µM (inactive) | 21.9 µM (inactive) | 25.5 µM (inactive) | 43.2 µM (inactive) | 12.3 µM (inactive) | 4.88 µM (inactive) | 17.4 µM (inactive) | 37.9 µM (inactive) | – | 15.7 µM (inactive) | –
CC(=O)[C@@H]1[C@@H](OC(=O)CCC(C)COC2OC(CO)C(O)C(O)C2O)C[C@H]2[C@@H]3CC=C4C[C@@H](OC5OC(CO)C(OC6OC(C)C(O)C(O)C6O)C(O)C5OC5OC(C)C(O)C(O)C5O)CC[C@]4(C)[C@H]3CC[C@]12C (some centres undefined) | > 100 µM (inactive) | 52.5 µM (inactive) | > 100 µM (inactive) | > 100 µM (inactive) | – | – | > 100 µM (inactive) | > 100 µM (inactive) | > 100 µM (inactive) | > 100 µM (inactive) | > 100 µM (inactive) | – | – | > 100 µM (inactive) | > 100 µM (inactive) | > 100 µM (inactive) | 64.7 µM (inactive) | > 100 µM (inactive) | > 100 µM (inactive) | > 100 µM (inactive)
COc1cccc(C2c3cc4c(cc3OC(NNc3ccccc3)C2C)OCO4)c1OC (centres undefined) | 1.59 µM (inactive) | 12.2 µM (inactive) | 2.5 µM (inactive) | 3.72 µM (inactive) | – | – | 7.6 µM (inactive) | – | 11.2 µM (inactive) | 2.55 µM (inactive) | 49.1 µM (inactive) | 5.06 µM (inactive) | 4.6 µM (inactive) | 6.62 µM (inactive) | 2.92 µM (inactive) | 3.77 µM (inactive) | 19.1 µM (inactive) | 1.76 µM (inactive) | 6.04 µM (inactive) | 5.09 µM (inactive)
Cc1ccc([N+](=O)[O-])cc1NC(=O)C(=O)C1CCC2=C(Sc3ccccc3N2)C1=O (centres undefined) | > 100 µM (inactive) | – | 52 µM (inactive) | 63.4 µM (inactive) | > 100 µM (inactive) | > 100 µM (inactive) | 66.8 µM (inactive) | > 100 µM (inactive) | > 100 µM (inactive) | 43.7 µM (inactive) | > 100 µM (inactive) | 58.7 µM (inactive) | > 100 µM (inactive) | > 100 µM (inactive) | – | > 100 µM (inactive) | > 100 µM (inactive) | 53 µM (inactive) | > 100 µM (inactive) | –
